Values joined by “and” are separate entries in the source; they are usually repeats but may differ in a detail not shown here. Equal entries are not always repeated. Where only a bound is given, the exact number is not on record here.

In one assay the test system is HBV. Nature of the assay: Viral production from HepAD38 cells, viral load by qPCR of HBV core sequence. Type of assay: cell-based. The note with it: 5 days, supernatant HBV DNA by qPCR, read-out: Viral Load EC50 Activity range. The procedure: Assay Measuring Activity of Test Compounds on Viral Production from HepAD38 Cells
HepAD38 cells grown in a T-150 flask (Corning, cat #: 430825) with Growth Medium (DMEM/F12 (1:1) (Hyclone, cat #: SH30023.02), 1× Pen/Strep (Invitrogen, cat #: 15140-122), 10% FBS (Tissue Culture Biologics, cat #: 101), 250 μg/mL G418 (Alfa Aesar, cat #: J62671), 1 μg/mL Tetracycline (Teknova, cat #: T3320)) were detached with 0.25% trypsin-EDTA to (Invitrogen, cat #: 25200-056). Tetracycline-free treatment medium (15 mL DMEM/F12 (1:1) 1× Pen/step, with 2% FBS, Tet-system approved (Clontech, cat #: 631106) were then added to mix, transferred into a 50 ml conical tube (Falcon, cat #: 21008-918,) and spun at 1300 rpm for 5 min. Pelleted cells were then re-suspended/washed with 50 mL of 1×DPBS (Invitrogen, cat #: 14190-136) 2 times and 50 mL treatment medium twice. HepAD38 cells were then re-suspended with 10 mL of treatment medium, syringed and counted. Wells of 96-well clear bottom TC plate (Corning, cat #: 3904,) were seeded at 50,000 cells/well in 180 μL of treatment medium, and 20 μL of either 10% DMSO (Sigma, cat #: D4540) as controls or a 10× solution of test compounds in 10% DMSO in treatment media was added for a final compound concentration starting at 10 μM, and plates were incubated in 5% CO2 incubator at 37° C. for 5 days.
Subsequently viral load production was assayed by quantitative PCR (qPCR) of the HBV core sequence. PCR reaction mixture containing forward primers HBV-f 5′-CTGTGCCTTGGGTGGCTTT-3′ (IDT DNA), Reverse primers HBV-r 5′-[…]-3′ (IDT DNA), Fluorescent TaqMan™ Probes HBV-probe 5′-FAM/AGCTCCAAA/ZEN/[…]/3IABkFQ-3′ (IDT DNA), 10 μL/well of PerfeCTa® qPCR ToughMix® (Quanta Biosciences, Cat #: 95114-05K), and 6 μL/well of DEPC water (Alfa Aesar, cat #: J62087) was prepared. […] of supernatant was added to 16 μL of the reaction mixture in a qPCR plate (Applied Biosytems, Cat #: 4309849), sealed with a film (Applied Biosystems, Cat #: 4311971), centrifuged for a few seconds, and subsequently run on an Applied Biosystems VIIA7. The PCR mixture was incubated at 45° C. for 5 min, then 95° C. for 10 min, followed by 40 cycles of 10 seconds at 95° C. and 20 seconds at 60° C. Viral load was quantified against known HBV DNA standards by using ViiA™ 7 Software. Viral load in the supernatant from wells with treated cells were compared against viral load in supernatant from DMSO control wells (>3 per plate). Cell viability assay was performed with CellTiter-Glo Luminescent Cell Viability Assay (Promega, cat #: G7573) with modification. Mixed appropriate amount of CellTiter-Glo (CTG) 1×DPBS in a 1:1 ratio, added 100 uL of the mixture to each well followed completely removal of all supernatant in each well without touching cell surface. Incubated the plate at room temperature for 10 min on an orbital shaker, and then read the plate with a plate reader (TECAN M1000 or Envision). EC50 or CC50 values were calculated through curve-fitting of the four-parameter nonlinear-logistic-regression model (GraphPad Prism or Dotmatics). CC50 values were all >10 μM.
In general terms: Real-time PCR tracks product formation cycle by cycle.
Consider “5-Amino-N-(3-chloro-4-fluorophenyl)-1-methyl-3-(3-(pyridin-4-yl)cyclopentyl)-1H-pyrazole-4-carboxamide [AIA-271]”, for which the EC50 is less than 0.1 µM.
As for “5-Amino-N-(3-chloro-4-fluorophenyl)-3-(3-(3-chlorophenyl)cyclopentyl)-1-methyl-1H-pyrazole-4-carboxamide [AIA-273]”, the EC50 is < 0.1 µM and 0.1 to 0.5 µM.
As for `Cn1cc(C2CCC(c3nn(C)c(N)c3C(=O)Nc3ccc(F)c(Cl)c3)C2)cn1` (single isomer, unassigned) [AIA-004-A, 5-Amino-N-(3-chloro-4-fluorophenyl)-1-methyl-3-(3-(1-methyl-1H-pyrazol-4-yl)cyclopentyl)-1H-pyrazole-4-carboxamide], the half-maximal effective concentration (EC50) is less than 0.1 µM.
For `Cn1cc(C2CCC(c3nn(C)c(N)c3C(=O)Nc3ccc(F)c(Cl)c3)C2)cn1` (single isomer, unassigned) [AIA-004-C, 5-Amino-N-(3-chloro-4-fluorophenyl)-1-methyl-3-(3-(1-methyl-1H-pyrazol-4-yl)cyclopentyl)-1H-pyrazole-4-carboxamide], the EC50 lay in the range of 0.1 to 0.5 µM.
Regarding `Cn1cc(C2CCC(c3nn(C)c(N)c3C(=O)Nc3ccc(F)c(Cl)c3)C2)cn1` (single isomer, unassigned) [AIA-004-D, 5-Amino-N-(3-chloro-4-fluorophenyl)-1-methyl-3-(3-(1-methyl-1H-pyrazol-4-yl)cyclopentyl)-1H-pyrazole-4-carboxamide], the EC50 is less than 0.1 µM.
`Cn1nc(C2CC3CNC(=O)CC3C2)c(C(=O)Nc2ccc(F)c(Cl)c2)c1N` (single isomer, unassigned) [AIA-033-B, 5-Amino-N-(3-chloro-4-fluorophenyl)-1-methyl-3-(3-oxooctahydro-1H-cyclopenta[c]pyridin-6-yl)-1H-pyrazole-4-carboxamide]: the EC50 is less than 0.1 µM.
Still for that read-out and setting: to `Cn1nc(C2CC3C[S+]([O-])CC3C2)c(C(=O)Nc2ccc(F)c(Cl)c2)c1N` (single isomer, unassigned) [AIA-056-B, 5-Amino-N-(3-chloro-4-fluorophenyl)-1-methyl-3-(2-oxidohexahydro-1H-cyclopenta[c]thiophen-5-yl)-1H-pyrazole-4-carboxamide] belongs 0.5 to 10 µM; to `Cn1nc(C2CCC(c3ccccc3)C2)c(C(=O)Nc2ccc(F)c(Cl)c2)c1N` (single isomer, unassigned) [AIA-202A, 5-Amino-N-(3-chloro-4-fluorophenyl)-1-methyl-3-(3-phenylcyclopentyl)-1H-pyrazole-4-carboxamide], less than 0.1 µM; to `Cn1nc(C2CCC(c3ccccc3)C2)c(C(=O)Nc2ccc(F)c(Cl)c2)c1N` (single isomer, unassigned) [AIA-202B, 5-Amino-N-(3-chloro-4-fluorophenyl)-1-methyl-3-(3-phenylcyclopentyl)-1H-pyrazole-4-carboxamide], less than 0.1 µM.

The same assay, now with this note: Hepatitis B virus, HePAD38, 120 h, 5 days, supernatant HBV DNA by qPCR, read-out: Viral Load EC50 Activity range.
For the molecule `Cn1cc(C2CCC(c3nn(C)c(N)c3C(=O)Nc3ccc(F)c(Cl)c3)C2)cn1` (single isomer, unassigned) [AIA-004-B, 5-Amino-N-(3-chloro-4-fluorophenyl)-1-methyl-3-(3-(1-methyl-1H-pyrazol-4-yl)cyclopentyl)-1H-pyrazole-4-carboxamide], the EC50 lay in the range of 0.1 to 0.5 µM.
`Cn1nc(C2CC3CNC(=O)CC3C2)c(C(=O)Nc2ccc(F)c(Cl)c2)c1N` (single isomer, unassigned) [AIA-033-A, 5-Amino-N-(3-chloro-4-fluorophenyl)-1-methyl-3-(3-oxooctahydro-1H-cyclopenta[c]pyridin-6-yl)-1H-pyrazole-4-carboxamide]: the EC50 lay within 0.1 to 0.5 µM.
On to `Cn1nc(C2CC3C[S+]([O-])CC3C2)c(C(=O)Nc2ccc(F)c(Cl)c2)c1N` (single isomer, unassigned) [AIA-056-A, 5-Amino-N-(3-chloro-4-fluorophenyl)-1-methyl-3-(2-oxidohexahydro-1H-cyclopenta[c]thiophen-5-yl)-1H-pyrazole-4-carboxamide], for which the EC50 lay within 0.5 to 10 µM.

Broadly, the EC50 is the concentration at which the effect is half-maximal.

For the origin of these results see patent US11560370B1, “5-membered heteroaryl carboxamide compounds for treatment of HBV” (Assembly Biosciences, Inc., priority 2018, dated 2023).
